Assay results published in US20250002492A1, “COMPOSITIONS OF FOLATE ABSORPTION INHIBITORS AND METHODS THEREOF” (THE TEXAS A&M UNIVERSITY SYSTEM, priority 2023, published 2025).

Columns and labels:
[1] = biological target: T1, Folate Uptake Transporter (PCFT) in Caco2 cells (Homo sapiens, UniProt Q96NT5); experiment: Folate uptake transporter substrate assessment in Caco2 cell line (compound uptake with and without pemetrexed); format: in vitro ADME; conditions: positive control, test conc. 0.01 μM, radiolabelled
T1 construct: These cells express high levels of the PCFT/SLC46A1 receptor; host or cells: Caco-2
T1 sequence (Q96NT5 1-459): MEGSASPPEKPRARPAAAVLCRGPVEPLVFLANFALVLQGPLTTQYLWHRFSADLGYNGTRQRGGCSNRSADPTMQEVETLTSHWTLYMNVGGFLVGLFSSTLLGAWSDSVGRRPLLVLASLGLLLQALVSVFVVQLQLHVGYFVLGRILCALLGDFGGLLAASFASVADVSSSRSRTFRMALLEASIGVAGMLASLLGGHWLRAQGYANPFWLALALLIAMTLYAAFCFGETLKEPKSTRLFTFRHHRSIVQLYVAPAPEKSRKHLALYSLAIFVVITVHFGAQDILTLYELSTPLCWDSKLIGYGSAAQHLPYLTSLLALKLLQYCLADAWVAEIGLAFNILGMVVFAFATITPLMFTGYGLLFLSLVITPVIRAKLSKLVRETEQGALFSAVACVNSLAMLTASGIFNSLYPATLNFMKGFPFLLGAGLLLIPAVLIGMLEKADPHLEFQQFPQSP

[2] = biological target: T1, Folate Uptake Transporter (PCFT) in Caco2 cells; experiment: Folate uptake transporter inhibition in Caco2 cell line ([3H]-folic acid uptake); format: cell-based; conditions: for inhibition at 50 µM: Caco-2, pH 5.5, test conc. 50 μM, read-out: Percentage inhibition (%); for effect on folate transport / uptake: Caco-2 cells, 50 μM
Description: Cell plates were prepared using Caco-2 cell culture medium consisting of Dulbecco's Modified Eagle's Medium (DMEM) with high glucose and L-glutamine supplemented with: 10% FBS, 1× penicillin-streptomycin mixture and 1×non-essential amino acids (NEAA) and medium was incubated at 37° C., 5% CO2 for 0.5 hour. Plates were prepared for cell seeding. Caco-2 cells from American Type Culture Collection at passage 44 were cultivated in T-75 flasks in a cell culture incubator set at 37° C., 5% CO2, 95% relative humidity. Cells reached 80-90% confluence before detaching and splitting. Cultivated cells in T-75 flasks were rinsed with 5 mL PBS and aspirated off. Then, 3 mL trypsin/EDTA was added, and cells were incubated at 37° C. for approximately 5 minutes or until the cells detached and floated. Trypsin/EDTA was inactivate by adding excess serum containing medium. Cell suspension was removed and transferred to a conical tube and cells were pelleted by centrifugation at 120×g for 5 minutes. Cells were resuspended in seeding medium at a density of 3×10^4 cells/well in 24-well plates. The plate was incubated for 8-10 days. The medium was replaced every other day, beginning no sooner than 48 hours after initial plating.
(§1) The transport buffer (HBSS with 10 mM MES, pH 5.5) was prepared by weighing 1.952 g of MES and 0.35 g sodium hydrogen carbonate and adding into 900 mL of pure water followed by sonication to dissolve the content. Following the transfer of 100 mL of 10×HBSS into the solution. The solution was placed on a stirrer, the pH was slowly adjusted with hydrochloric acid to 5.5, and then the solution was filtered to get HBSS solution (with 10 mM MES, pH 5.5).
The [3H]-folic acid (10 nM) substrate solution was prepared using [3H]-folic acid (1 mCi/ml) diluted with pH 5.5 buffer. Next, the [3H]-folic acid (10 nM) substrate solution+test inhibitor (X μM) and the [3H]-folic acid (10 nM) substrate solution+positive control inhibitor (pemetrexed, 50 μM) were prepared. For the solution without inhibitor, DMSO was diluted with corresponding substrate solution to get the working incubation solution.
The pre-incubation solution was prepared by adding the same final concentration of test compound (X μM) and the known inhibitor (pemetrexed, 50 μM) in pH 5.5 buffer. For the solution without inhibitor, DMSO diluted with in pH 5.5 buffer was used as the vehicle control.
When the 8-10 day Caco-2 cultured cells reached confluence and were differentiated, they were ready to be used for transport studies. The Caco-2 plate was removed from the incubator, and the medium was removed from the 24-well Plates. Next, cells were washed 3 times with 300 μL of pre-warmed pH 5.5 buffer. Then, 300 μL of pre-incubation solution was added into each well and the plate was placed at 37° C. for 30 minutes. The assay was performed in duplicate. After 30 minutes pre-incubation, the pre-incubation solution was aspirated, and 300 μL of pre-warmed working incubation solution was added to start the transporter assay. After 6 minutes incubation, cells were washed by quickly adding/aspirating 300 μL of ice-cold pH 5.5 buffer 4 times. The pH 5.5 buffer was removed and 300 μL of pure water was added into each well. Freeze-thaw in liquid nitrogen and 37° C. incubator was repeated for 3 times to lyse cells. After, centrifugation at 3,300 g was performed for 30 seconds. Next, 50 μL of supernatant was transferred to Isoplate-96 Microplate. 200 μL of scintillation fluid was added to the 50 μL sample and radioactivity was measured by liquid scintillation counting in a MicroBeta 2 scintillation counter for 1 min/sample.
A BCA Kit was used to determine the protein content for each well. Bovine serum albumin at 2, 1, 0.5, 0.25, 0.125, 0.0625, 0.0313, 0.0156, 0.00781 and 0.00391 mg/mL was prepared in Phosphate Buffer Saline (PBS, pH 7.4). 10 μL of supernatant was mixed from the previous step with the same volume of PBS. […]

[3] = biological target: T1, Folate Uptake Transporter (PCFT) in Caco2 cells; experiment: Folate uptake transporter substrate assessment in Caco2 cell line (compound uptake with and without pemetrexed); format: in vitro ADME; conditions: for cell permeability: Caco-2; for Uptake Ratio(−Inhibitor/+Inhibitor): human, Caco-2, 6 min, 1 μM, pH 5.5
Description: Cell Plates were Prepared According to the Methods of Example 8 Using Caco-2 Cells from American Type Culture Collection at Passage 37.
as §1
The test compounds and folic acid (1 μM) substrate solutions were prepared by diluting with pH 5.5 buffer. Next, the test compounds and folic acid (1 μM) substrate solution+positive control inhibitor (pemetrexed, 50 μM) were prepared. For the solution without inhibitor, DMSO was diluted with corresponding substrate solution to get the working incubation solution.
For the solution with inhibitor, the pre-incubation solution was prepared by adding the positive control inhibitor (pemetrexed, 50 μM) in pH 5.5 buffer. For the solution without inhibitor, DMSO was diluted with pH 5.5 buffer and used as the vehicle control.
When the 8-10 day Caco-2 cultured cells reached confluence and were differentiated, they were ready to be used for transport studies. The Caco-2 plate was removed from the incubator, and the medium was removed from the 24-well Plates. Next, cells were washed 3 times with 300 μL of pre-warmed pH 5.5 buffer. Then, 300 μL of pre-incubation solution was added into each well and the plate was placed at 37° C. for 30 minutes. The assay was performed in duplicate. After 30 minutes pre-incubation, the pre-incubation solution was aspirated, and 300 μL of pre-warmed working incubation solution was added to start the transporter assay. After 6 minutes incubation, cells were washed by quickly adding/aspirating 300 μL of ice-cold pH 5.5 buffer 4 times. The pH 5.5 buffer was removed and 300 μL of pure water was added into each well. Freeze-thaw in liquid nitrogen and 37° C. incubator was repeated for 3 times to lyse cells. After, centrifugation at 3,300 g was performed for 30 seconds. Next, 50 μL of supernatant was transferred to 200 μL methanol or acetonitrile containing internal standard and centrifuged at 3,300 g for 30 minutes. 200 μL aliquots of the supernatants were used for LC-MS/MS analysis. Standards were treated the same as samples.
A BCA Kit was used to determine the protein content for each well. Bovine serum albumin at 2, 1, 0.5, 0.25, 0.125, 0.0625, 0.0313, 0.0156, 0.00781 and 0.00391 mg/mL was prepared in Phosphate Buffer Saline (PBS, pH 7.4). 10 μL of supernatant was mixed from the previous step with the same volume of PBS. 20 μL of standard or test sample was added into 96-well clear plate and mixed with 200 μL working reagent. After 30 minutes incubation at 37° C., the absorbance at 562 nm was measured on the microplate reader.
Standard-curves: prepared 200 μM DMSO Folic acid solution, samples of 1000 nm, 300 nm, 100 nm, 30 nM, and 10 nM prepared using a PH 5.5 buffer, and a PH 5.5 buffer containing 50 μM of pemetrexed, respectively.
All calculations were carried out using Microsoft Excel. Peak areas were determined from extracted ion chromatograms. Uptake rate, in unit of pmol/mg protein/min, is calculated using the following equation: Uptake rate=Conc./(Protein×Time); Conc. is concentration of drug in cell lysate (nM), Protein is the protein concentration of cell lysate (mg/mL), and Time is the incubation time (minute). Uptake ratio is calculated using the following equation: Uptake ratio=Uptake rate without inhibitor/Uptake rate with inhibitor. Note: The compound was considered as a potential substrate of a particular transporter when the uptake ratio was greater than 2.

[4] = [3H]-folic acid 10 nM, 30 min pre-incubation, 6 min incubation

## Folic acid [3,5,7,9-3H] sodium salt
[1]; DMSO (no inhibitor)
  Uptake Rate (pmol/mg protein/min): 0.02 pmol/mg protein/min
[1]; pemetrexed 50 μM
  Uptake Ratio(−Inhibitor/+Inhibitor): 2.66
[1]; with pemetrexed 50 μM
  Uptake Rate (pmol/mg protein/min): 0.01 pmol/mg protein/min

## Nc1nc2[nH]cc(CCc3ccc(C(=O)N[C@@H](CCC(=O)O)C(=O)O)cc3)c2c(=O)[nH]1 [Pemetrexed, reference compound]
[2]; [4]
  inhibition at 50 µM: 62.4%

## Cc1ccc(NC(=O)N2Cc3[nH]cnc3CC2c2nc(-c3ccc4c(c3)OCO4)no2)cc1 (stereo not shown) [MPOL_D_1, 6-(3-(benzo[d][1,3]dioxol-5-yl)-1,2,4-oxadiazol-5-yl)-N-(p-tolyl)-3,4,6,7-tetrahydro-5H-imidazo[4,5-c]pyridine-5-carboxamide]
[3]
  cell permeability: highly permeable
  Uptake Ratio(−Inhibitor/+Inhibitor): 1.02
[2]; [4]
  inhibition at 50 µM: 25.5%
[2]; pH 5.5
  effect on folate transport / uptake: inhibit folate uptake
[2]; test conc. 50 μM, [3H]-folic acid 10 nM, pH 5.5, 30 min pre-incubation, 6 min incubation
  Percentage inhibition (%): 25.25%

## Cc1cccc(-c2noc(C3Cc4nc[nH]c4CN3C(=O)Nc3cccc(F)c3)n2)c1 (stereo not shown) [MPOL_D_2, N-(3-fluorophenyl)-6-(3-(m-tolyl)-1,2,4-oxadiazol-5-yl)-3,4,6,7-tetrahydro-5H-imidazo[4,5-c]pyridine-5-carboxamide]
[3]
  cell permeability: highly permeable
  Uptake Ratio(−Inhibitor/+Inhibitor): 0.86
[2]; [4]
  inhibition at 50 µM: -18.7%
[2]; pH 5.5
  effect on folate transport / uptake: promoted folate transport
